Measured values taken from ChEMBL document CHEMBL5291721, “A preclinical secondary pharmacology resource illuminates target-adverse drug reaction associations of marketed drugs” (Nat Commun, 2023).
Several values for one entry are separate records, joined by “and”; a condition that tells them apart may be missing. Identical values can stand only once.

Key:
Adenosine receptor A3 = biological target: T1, Adenosine receptor A3 (Homo sapiens, UniProt P0DMS8)
T1 sequence (P0DMS8 whole entry): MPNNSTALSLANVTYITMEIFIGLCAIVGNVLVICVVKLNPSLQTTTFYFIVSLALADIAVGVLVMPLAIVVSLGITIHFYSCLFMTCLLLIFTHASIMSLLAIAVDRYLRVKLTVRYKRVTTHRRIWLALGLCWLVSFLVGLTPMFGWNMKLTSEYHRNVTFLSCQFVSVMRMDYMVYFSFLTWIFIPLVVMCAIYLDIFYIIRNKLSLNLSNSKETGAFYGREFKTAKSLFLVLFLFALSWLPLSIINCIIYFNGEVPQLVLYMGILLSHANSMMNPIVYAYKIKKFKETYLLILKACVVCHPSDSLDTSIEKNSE

Histamine H3 receptor = Histamine H3 receptor (Homo sapiens, UniProt Q9Y5N1)
Histamine H3 receptor, sequence (Q9Y5N1 whole entry): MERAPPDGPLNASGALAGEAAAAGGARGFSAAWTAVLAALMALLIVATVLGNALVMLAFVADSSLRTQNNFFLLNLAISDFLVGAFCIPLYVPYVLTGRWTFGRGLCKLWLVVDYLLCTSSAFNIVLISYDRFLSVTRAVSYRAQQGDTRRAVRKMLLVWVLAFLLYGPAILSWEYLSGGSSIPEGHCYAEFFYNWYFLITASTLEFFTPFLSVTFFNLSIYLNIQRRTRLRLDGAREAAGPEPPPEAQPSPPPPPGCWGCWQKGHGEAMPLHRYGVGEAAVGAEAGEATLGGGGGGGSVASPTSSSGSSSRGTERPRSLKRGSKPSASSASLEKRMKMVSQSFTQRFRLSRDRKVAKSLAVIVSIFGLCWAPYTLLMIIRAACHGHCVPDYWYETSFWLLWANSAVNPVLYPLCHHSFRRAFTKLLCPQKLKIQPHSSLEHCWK

Adenosine receptor A1 = biological target: T2, Adenosine receptor A1 (Homo sapiens, UniProt P30542)
T2 sequence (P30542 whole entry): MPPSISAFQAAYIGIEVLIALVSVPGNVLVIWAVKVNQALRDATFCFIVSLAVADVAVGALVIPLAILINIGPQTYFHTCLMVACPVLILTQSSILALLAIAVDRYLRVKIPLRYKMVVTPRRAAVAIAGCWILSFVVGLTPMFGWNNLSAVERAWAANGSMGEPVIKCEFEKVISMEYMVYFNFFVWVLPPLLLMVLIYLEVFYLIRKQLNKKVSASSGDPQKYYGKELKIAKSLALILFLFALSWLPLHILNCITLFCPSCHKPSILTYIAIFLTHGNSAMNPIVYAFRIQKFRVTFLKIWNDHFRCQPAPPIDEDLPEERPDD

[1] = biological target: T3, 5-hydroxytryptamine receptor 2C (Homo sapiens, UniProt P28335)
T3 sequence (P28335 whole entry): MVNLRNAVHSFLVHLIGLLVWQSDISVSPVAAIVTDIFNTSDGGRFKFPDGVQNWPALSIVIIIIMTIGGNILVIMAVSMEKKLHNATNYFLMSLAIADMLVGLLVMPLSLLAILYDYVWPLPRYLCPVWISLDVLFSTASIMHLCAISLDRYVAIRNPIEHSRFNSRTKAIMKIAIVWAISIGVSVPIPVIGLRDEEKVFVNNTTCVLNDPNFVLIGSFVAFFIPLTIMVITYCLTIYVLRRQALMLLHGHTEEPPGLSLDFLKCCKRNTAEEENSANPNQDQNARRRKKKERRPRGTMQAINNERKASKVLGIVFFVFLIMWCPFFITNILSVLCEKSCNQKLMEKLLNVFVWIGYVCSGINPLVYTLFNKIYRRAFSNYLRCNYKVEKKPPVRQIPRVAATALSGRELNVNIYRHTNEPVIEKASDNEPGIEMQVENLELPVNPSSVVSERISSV

Motilin receptor = Motilin receptor (Homo sapiens, UniProt O43193)
Motilin receptor, sequence (O43193 whole entry): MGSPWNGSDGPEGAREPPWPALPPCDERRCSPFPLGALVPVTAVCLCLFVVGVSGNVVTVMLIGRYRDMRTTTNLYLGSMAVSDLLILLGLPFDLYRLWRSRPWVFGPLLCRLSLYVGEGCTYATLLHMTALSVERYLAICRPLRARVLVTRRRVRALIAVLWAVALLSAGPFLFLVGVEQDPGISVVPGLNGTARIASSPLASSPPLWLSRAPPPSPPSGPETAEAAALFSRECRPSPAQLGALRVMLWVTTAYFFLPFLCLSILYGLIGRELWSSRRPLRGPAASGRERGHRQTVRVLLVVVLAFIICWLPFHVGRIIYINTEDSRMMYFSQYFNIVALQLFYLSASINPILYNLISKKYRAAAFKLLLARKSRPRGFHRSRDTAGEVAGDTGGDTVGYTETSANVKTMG

[2] = biological target: Sodium-dependent dopamine transporter (Homo sapiens, UniProt Q01959)
Sodium-dependent dopamine transporter, sequence (Q01959 whole entry): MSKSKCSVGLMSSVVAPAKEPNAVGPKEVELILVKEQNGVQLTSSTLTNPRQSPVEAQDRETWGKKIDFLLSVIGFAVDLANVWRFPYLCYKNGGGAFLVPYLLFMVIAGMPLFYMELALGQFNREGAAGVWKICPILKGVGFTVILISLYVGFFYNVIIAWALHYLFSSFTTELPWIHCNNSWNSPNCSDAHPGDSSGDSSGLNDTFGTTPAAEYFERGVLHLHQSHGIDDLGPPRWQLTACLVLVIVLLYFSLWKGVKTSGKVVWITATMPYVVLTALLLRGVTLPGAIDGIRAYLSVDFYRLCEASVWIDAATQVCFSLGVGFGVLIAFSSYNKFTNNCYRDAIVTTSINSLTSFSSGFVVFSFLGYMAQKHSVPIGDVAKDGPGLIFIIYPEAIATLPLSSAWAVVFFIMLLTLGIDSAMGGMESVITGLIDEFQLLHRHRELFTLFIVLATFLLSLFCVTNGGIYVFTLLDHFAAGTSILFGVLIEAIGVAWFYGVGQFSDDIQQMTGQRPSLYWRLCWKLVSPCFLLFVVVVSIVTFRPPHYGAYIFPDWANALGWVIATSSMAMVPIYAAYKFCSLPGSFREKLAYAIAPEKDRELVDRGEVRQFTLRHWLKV

[3] = biological target: 5-hydroxytryptamine receptor 2B (Homo sapiens, UniProt P41595); assay type: functional, cell-based
5-hydroxytryptamine receptor 2B, sequence (P41595 whole entry): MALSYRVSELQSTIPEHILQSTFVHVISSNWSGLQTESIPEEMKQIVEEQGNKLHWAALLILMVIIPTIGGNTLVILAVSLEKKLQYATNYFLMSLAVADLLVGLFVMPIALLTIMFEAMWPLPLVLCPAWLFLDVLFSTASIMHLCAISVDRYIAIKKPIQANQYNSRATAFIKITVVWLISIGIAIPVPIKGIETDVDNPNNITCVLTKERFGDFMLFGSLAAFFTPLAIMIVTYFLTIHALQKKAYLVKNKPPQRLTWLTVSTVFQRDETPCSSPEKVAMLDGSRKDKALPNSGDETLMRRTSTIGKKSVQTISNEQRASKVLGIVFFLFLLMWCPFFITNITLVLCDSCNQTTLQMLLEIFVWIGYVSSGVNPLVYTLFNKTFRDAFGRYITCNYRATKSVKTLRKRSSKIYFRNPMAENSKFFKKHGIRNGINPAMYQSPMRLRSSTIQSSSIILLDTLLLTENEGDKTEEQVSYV

[4] = biological target: Sodium-dependent noradrenaline transporter (Homo sapiens, UniProt P23975)
Sodium-dependent noradrenaline transporter, sequence (P23975 whole entry): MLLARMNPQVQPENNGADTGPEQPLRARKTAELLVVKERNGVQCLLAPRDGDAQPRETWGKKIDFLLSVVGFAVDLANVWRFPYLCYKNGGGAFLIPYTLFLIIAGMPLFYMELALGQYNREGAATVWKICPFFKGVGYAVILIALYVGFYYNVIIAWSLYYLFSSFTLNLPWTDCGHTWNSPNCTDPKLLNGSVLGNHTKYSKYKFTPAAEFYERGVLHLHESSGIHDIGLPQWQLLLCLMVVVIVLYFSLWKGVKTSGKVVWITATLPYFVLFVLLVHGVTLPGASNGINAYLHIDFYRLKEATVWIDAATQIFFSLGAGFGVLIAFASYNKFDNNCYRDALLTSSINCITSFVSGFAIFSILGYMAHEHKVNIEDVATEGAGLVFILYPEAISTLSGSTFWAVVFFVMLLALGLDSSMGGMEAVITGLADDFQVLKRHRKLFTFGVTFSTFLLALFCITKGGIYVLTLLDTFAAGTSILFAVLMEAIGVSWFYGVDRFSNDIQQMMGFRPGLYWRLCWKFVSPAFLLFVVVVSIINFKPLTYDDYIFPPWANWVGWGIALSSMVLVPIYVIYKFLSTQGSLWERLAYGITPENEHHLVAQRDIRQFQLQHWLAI

[5] = biological target: T4, Muscarinic acetylcholine receptor M2 (Homo sapiens, UniProt P08172); assay type: functional, cell-based
T4 sequence (P08172 whole entry): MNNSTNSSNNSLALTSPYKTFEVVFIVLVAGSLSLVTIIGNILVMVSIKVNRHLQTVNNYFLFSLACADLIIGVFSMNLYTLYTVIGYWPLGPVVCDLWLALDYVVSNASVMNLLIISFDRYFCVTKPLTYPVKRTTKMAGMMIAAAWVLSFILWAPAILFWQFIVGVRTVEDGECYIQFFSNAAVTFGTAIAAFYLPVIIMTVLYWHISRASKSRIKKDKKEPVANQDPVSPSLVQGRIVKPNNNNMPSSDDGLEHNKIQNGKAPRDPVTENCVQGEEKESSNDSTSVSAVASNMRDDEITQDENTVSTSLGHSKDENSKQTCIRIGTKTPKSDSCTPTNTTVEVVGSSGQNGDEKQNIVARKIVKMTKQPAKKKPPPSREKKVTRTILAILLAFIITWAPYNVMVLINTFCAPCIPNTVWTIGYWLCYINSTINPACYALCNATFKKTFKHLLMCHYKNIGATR

Progesterone receptor = biological target: T5, Progesterone receptor (Homo sapiens, UniProt P06401); assay type: functional
T5 sequence (P06401 whole entry): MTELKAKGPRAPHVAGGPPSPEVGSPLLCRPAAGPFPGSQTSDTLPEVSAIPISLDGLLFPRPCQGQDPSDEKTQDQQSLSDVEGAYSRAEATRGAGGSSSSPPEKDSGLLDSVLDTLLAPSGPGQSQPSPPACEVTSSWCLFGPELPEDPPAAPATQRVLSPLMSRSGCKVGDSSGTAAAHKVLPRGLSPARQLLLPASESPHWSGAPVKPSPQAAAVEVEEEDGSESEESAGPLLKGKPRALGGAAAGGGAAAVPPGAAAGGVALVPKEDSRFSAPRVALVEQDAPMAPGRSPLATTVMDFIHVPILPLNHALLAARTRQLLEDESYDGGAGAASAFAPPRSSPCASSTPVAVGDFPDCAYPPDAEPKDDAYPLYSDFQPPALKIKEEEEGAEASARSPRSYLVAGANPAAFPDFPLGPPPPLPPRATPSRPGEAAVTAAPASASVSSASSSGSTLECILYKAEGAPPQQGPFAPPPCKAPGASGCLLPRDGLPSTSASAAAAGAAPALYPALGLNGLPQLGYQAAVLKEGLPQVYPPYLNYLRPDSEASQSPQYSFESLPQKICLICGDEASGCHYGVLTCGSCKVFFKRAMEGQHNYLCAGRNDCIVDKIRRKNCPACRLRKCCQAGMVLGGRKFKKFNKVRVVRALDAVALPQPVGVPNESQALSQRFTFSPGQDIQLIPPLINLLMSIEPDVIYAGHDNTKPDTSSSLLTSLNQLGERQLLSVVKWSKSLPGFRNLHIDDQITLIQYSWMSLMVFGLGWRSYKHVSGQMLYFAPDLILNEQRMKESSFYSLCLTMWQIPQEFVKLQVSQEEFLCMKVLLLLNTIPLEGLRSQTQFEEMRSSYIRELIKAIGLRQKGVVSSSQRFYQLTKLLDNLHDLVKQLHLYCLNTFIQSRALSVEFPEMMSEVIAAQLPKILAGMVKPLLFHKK
Note: assay procedure not described here.

SMILES	AC50 (Adenosine receptor A3)	AC50 (Histamine H3 receptor)	AC50 (Adenosine receptor A1)	AC50 [1]	AC50 (Motilin receptor)	AC50 [2]	AC50 [3]	AC50 [4]	AC50 [5]	AC50 (Progesterone receptor)
Oc1cc(O)c(Cl)cn1	> 30 µM	> 30 µM	> 30 µM	> 30 µM	> 30 µM	> 30 µM	> 30 µM	> 30 µM	> 30 µM	
CC(=O)c1ccc(S(=O)(=O)NC(=O)NC2CCCCC2)cc1 [ACETOHEXAMIDE]	> 10 µM		> 10 µM	> 30 µM	> 10 µM	> 10 µM	> 30 µM	> 10 µM	> 10 µM	> 10 µM
CCC1(CCC(C)C)C(=O)NC(=O)NC1=O [AMOBARBITAL]	> 10 µM		> 10 µM	> 30 µM	> 10 µM	> 10 µM	> 10 µM	> 10 µM	> 10 µM	> 10 µM
Cc1cc(=O)n(-c2ccccc2)n1C [ANTIPYRINE]	> 30 µM	> 10 µM	> 30 µM	> 30 µM	> 10 µM	> 30 µM	> 10 µM	> 30 µM	> 10 µM	
COc1cc(N)c(Cl)cc1C(=O)NC1CCN(CCCOc2ccc(F)cc2)CC1OC (stereo unspecified) [CISAPRIDE]	> 30 µM	> 10 µM	> 30 µM		1.8 µM	> 30 µM		> 30 µM	> 10 µM	
CCOC(=O)C(C)(C)Oc1ccc(Cl)cc1 [CLOFIBRATE]	> 30 µM	> 10 µM	> 30 µM	> 30 µM	> 10 µM	> 30 µM	> 10 µM	> 30 µM	> 10 µM	
C[C@@H]1C[C@H]2[C@@H]3CCC4=CC(=O)C=C[C@]4(C)[C@@]3(F)[C@@H](O)C[C@]2(C)[C@@]1(O)C(=O)CO [DEXAMETHASONE]	> 30 µM	> 30 µM	> 30 µM	> 30 µM	> 30 µM	> 30 µM	> 10 µM	> 30 µM	> 10 µM	
CCCCOc1ccc(C(=O)CCN2CCCCC2)cc1 [DYCLONINE]	> 30 µM	3.9 µM	> 30 µM	> 10 µM	> 10 µM	4.82 µM	> 10 µM	2.3 µM	> 10 µM	
CC(C)NC[C@H](O)COc1ccc(CC(N)=O)cc1 [ESATENOLOL]	> 30 µM		> 30 µM	> 10 µM	> 10 µM			> 10 µM		
O=C1Nc2ccc(Cl)cc2C(c2ccccc2Cl)=NC1O (stereo unspecified) [LORAZEPAM]	> 30 µM	> 10 µM	> 30 µM	> 30 µM	> 10 µM	> 10 µM	> 10 µM	> 10 µM	> 10 µM	
CN1CCN=C(c2ccccc2)c2cc(Cl)ccc21 [MEDAZEPAM]	15 µM	> 30 µM	> 30 µM	25 µM	> 30 µM	22 µM	> 30 µM	> 30 µM	> 30 µM	
CC(=O)[C@H]1CC[C@H]2[C@@H]3C[C@H](C)C4=CC(=O)CC[C@]4(C)[C@H]3[C@@H](O)C[C@]12C [MEDRYSONE]	> 10 µM		> 10 µM	> 30 µM	> 10 µM	> 10 µM	> 10 µM	> 10 µM	> 10 µM	
Cc1ccnc2c1NC(=O)c1cccnc1N2C1CC1 [NEVIRAPINE]	1.02 µM	> 10 µM	31.2 µM	> 10 µM	> 10 µM	> 10 µM	> 10 µM	> 10 µM	> 10 µM	
CO[C@H]1C[C@H](O[C@H]2CC[C@@]3(C)[C@H](CC[C@@H]4[C@@H]3CC[C@]3(C)[C@@H](C5=CC(=O)OC5)[C@@H](OC(C)=O)C[C@]43O)C2)O[C@@H](C)[C@@H]1O [OLEANDRIN]				> 30 µM					> 30 µM	
C[C@]12C/C(=C/O)C(=O)C[C@@H]1CC[C@@H]1[C@@H]2CC[C@@]2(C)[C@H]1CC[C@]2(C)O [OXYMETHOLONE]	8.2 µM	> 30 µM	> 30 µM	> 30 µM	> 30 µM	> 30 µM	> 30 µM	> 30 µM	> 30 µM	
Fc1ccc([C@@H]2CCNC[C@H]2COc2ccc3c(c2)OCO3)cc1 [PAROXETINE]	22.5 µM	> 10 µM	> 30 µM	> 30 µM	> 10 µM		9.9 µM and > 30 µM			
CCC(=O)O[C@](Cc1ccccc1)(c1ccccc1)[C@H](C)CN(C)C [PROPOXYPHENE]	> 30 µM	> 10 µM	> 30 µM	> 30 µM	> 10 µM	> 10 µM	> 10 µM	> 10 µM	> 10 µM	
O=c1c(O)c(-c2ccc(O)c(O)c2)oc2cc(O)cc(O)c12 [QUERCETIN]	4.2 µM	> 10 µM		> 30 µM	> 10 µM		> 30 µM		10 µM	
CCOC(=O)c1ccc(C#Cc2ccc3c(c2)C(C)(C)CCS3)nc1 [TAZAROTENE]	> 30 µM	> 10 µM	> 30 µM	> 30 µM	> 10 µM	> 30 µM	> 10 µM	> 30 µM	> 10 µM	
CCCCCCCC(=O)CC[C@@H]1[C@@H](C/C=C\CCCC(=O)OC(C)C)[C@@H](O)C[C@H]1O [UNOPROSTONE ISOPROPYL]	5.6 µM					7.2 µM	> 30 µM	7.2 µM		21 µM
